Laboratory results from patent US6576268B2, “Biologically active fraction of vegetable melanin, process for its production and its use” (priority 1998, dated 2003).

Assay: SOD-like activity and IC50, chemiluminometric method (PHOTOCHEM, set FAT Berlin)
Format: biochemical
Settings: fytomelanin with 10^19 spin/g
Experimental: To determine the SOD-like activity a chemiluminometric method using the chemiluminometer PHOTOCHEM was used, where the set FAT, Berlin for the SOD activity was used for the determination. The measurements were performed with the measuring time of 3 minutes, and the area integral of the chemiluminiscent curve was recorded. The value was recalculated to the unit SOD activity (by weight), and it represents 0.2 of the SOD activity.

Substance: SOD: superoxide dismutase, molecular weight 32000, reference enzyme
- -log IC50: 8.064
- % SOD activity (relative to SOD = 100): 100.00%
